Laboratory results published in patent US20100074083A1, “RESIN COMPOSITION AND MOLDED PRODUCT OBTAINED BY MOLDING THE RESIN COMPOSITION” (MITSUI CHEMICALS, INC., priority 2006, published 2010).

Legend:
[1] = Weight reducing temperature at heating (heat resistance, TG-DTA); assay type: physicochemical; details: heated at 5° C./minutes under nitrogen
Experimental: The sample was heated at 5° C./minutes under nitrogen, and measured by means of TG8120 type TG-DTA device manufactured by Rigaku Corporation.

Hexane solubility = assay type: physicochemical; details: stirred 1 hour, naked eye; for Hexane solubility 43 g: 43 g sample in 100 g n-hexane at 23° C.; for Hexane solubility 100 g: 100 g sample in 100 g n-hexane at 23° C.
Experimental: The samples in an amount as shown in Table 1 were added into 100 g of n-hexane at 23° C., and the mixture was stirred for 1 hour, and thereafter the state was evaluated with naked eyes on the basis of following criteria.
(Criteria for Evaluation)
S; Completely dissolved, C; Dissolved, but insoluble materials remained, and I.S.; Substantially not dissolved.

| SMILES | Heat resistance 1% by weight reducing temperature [1] [°C] | Heat resistance 5% by weight reducing temperature [1] [°C] | Hexane solubility 43 g (Hexane solubility) | Hexane solubility 100 g (Hexane solubility) | Hexane solubility 25 g (Hexane solubility; 25 g sample in 100 g n-hexane at 23° C.) |
| --- | --- | --- | --- | --- | --- |
| CCCCCCCCCCCCNC1CC(C)(C)NC(C)(C)C1 [Exemplary compound 5, N-dodecyl-2,2,6,6-tetramethyl piperidine-4-amine] | 103.3 | 188.1 | S | S | – |
| CCCCCCCCCCCCNc1nc(N(CCCC)C2CC(C)(C)NC(C)(C)C2)nc(N(CCCC)C2CC(C)(C)NC(C)(C)C2)n1 [Exemplary compound 9, N,N′-dibutyl-N″-dodecyl-N,N′-bis(2,2,6,6-tetramethyl-4-piperidyl)-1,3,5-triazine-2,4,6-triamine] | – | – | S | – | – |
| CCCCCCCCCCCCN(CCCNc1nc(N(CCCC)C2CC(C)(C)N(C)C(C)(C)C2)nc(N(CCCC)C2CC(C)(C)N(C)C(C)(C)C2)n1)CCCNc1nc(N(CCCC)C2CC(C)(C)N(C)C(C)(C)C2)nc(N(CCCC)C2CC(C)(C)N(C)C(C)(C)C2)n1 [Exemplary compound 4] | 292.7 | 357.2 | S | S | – |
| CCCCCCCCCCCCN(c1nc(NCCCC)nc(N(CCCCCCCCCCCC)C2CC(C)(C)NC(C)(C)C2)n1)C1CC(C)(C)NC(C)(C)C1 [Exemplary compound 14, N-butyl-N′,N″-didodecyl-N′,N″-bis(2,2,6,6-tetramethyl-4-piperidyl)-1,3,5-triazine-2,4,6-triamine] | – | – | S | S | – |
| CCCCCCCCCCCCN(c1nc(N(CCCCCCCCCCCC)C2CC(C)(C)NC(C)(C)C2)nc(N(CCCCCCCCCCCC)C2CC(C)(C)NC(C)(C)C2)n1)C1CC(C)(C)NC(C)(C)C1 [Exemplary compound 3, N,N′,N″-trilauryl-N,N′,N″-tris(2,2,6,6-tetramethyl-4-piperidin-4-yl)-[1,3,5]-triazine-2,4,6-triamine] | 246.2 | 377.1 | S | S | – |
| CCCCCCCCN(CCCCCCCC)c1nc(N(CCCC)C2CC(C)(C)NC(C)(C)C2)nc(N(CCCC)C2CC(C)(C)NC(C)(C)C2)n1 [Exemplary compound 12, N,N′-dibutyl-N,N′-bis(2,2,6,6-tetramethyl-4-piperidyl)-N″, N″-dioctyl-1,3,5-triazine-2,4,6-triamine] | – | – | S | S | – |
| CCCCCCCCCCCCN(c1nc(N(CCCCCCCCCCCC)C2CC(C)(C)N(C)C(C)(C)C2)nc(N(CCCCCCCCCCCC)C2CC(C)(C)N(C)C(C)(C)C2)n1)C1CC(C)(C)N(C)C(C)(C)C1 [Exemplary compound 8, N,N′,N″-tridodecyl-N,N′,N″-tris-(1,2,2,6,6-pentamethyl-4-piperidinyl)-[1,3,5]-triazine-2,4,6-triamine] | 330.1 | 378.2 | S | S | – |
| CCCCNc1nc(N(CCCC)C2CC(C)(C)NC(C)(C)C2)nc(N(CCCC)C2CC(C)(C)NC(C)(C)C2)n1 [Exemplary compound 10, N,N′,N″-tributyl-N,N′-bis(2,2,6,6-tetramethyl-4-piperidyl)-1,3,5-triazine-2,4,6-triamine] | – | – | S | – | – |
| CCCCCCCCCCCCNc1nc(N(CCCC)C2CC(C)(C)N(C)C(C)(C)C2)nc(N(CCCC)C2CC(C)(C)N(C)C(C)(C)C2)n1 [Exemplary compound 1, N,N′-dibutyl-,N″-lauryl-N,N′-bis-(1,2,2,6,6-pentamethyl-4-piperidin-4-yl)-[1,3,5]-triazine-2,4,6-triamine] | 271.6 | 333.4 | S | S | – |
| CC1(C)CC(OC(=O)CCCCCCCCC(=O)OC2CC(C)(C)NC(C)(C)C2)CC(C)(C)N1 [TINUVIN 770] | 207.4 | 248.4 | – | – | I.S. |
| CCCCCCCCN(c1nc(N(CCCCCCCC)C2CC(C)(C)N(C)C(C)(C)C2)nc(N(CCCCCCCC)C2CC(C)(C)N(C)C(C)(C)C2)n1)C1CC(C)(C)N(C)C(C)(C)C1 [Exemplary compound 7, N,N′,N″-trioctyl-N,N′,N″-tris-(1,2,2,6,6-pentamethyl-4-piperidinyl)-[1,3,5]-triazine-2,4,6-triamine] | 291.5 | 340.1 | S | S | – |
| CCCCCCCCCCCCNc1nc(N(CCCCCCCCCCCC)C2CC(C)(C)NC(C)(C)C2)nc(N(CCCCCCCCCCCC)C2CC(C)(C)NC(C)(C)C2)n1 [Exemplary compound 2, N,N′,N″-trilauryl-N,N′-bis-(2,2,6,6-tetramethylpiperidin-4-yl)-[1,3,5]-triazine-2,4,6-triamine] | 292.9 | 366.7 | S | S | – |
| CCCCN(CCCC)c1nc(N(CCCC)C2CC(C)(C)NC(C)(C)C2)nc(N(CCCC)C2CC(C)(C)NC(C)(C)C2)n1 [Exemplary compound 11, N,N′,N″,N″-tetrabutyl-N,N′-bis(2,2,6,6-tetramethyl-4-piperidyl)-1,3,5-triazine-2,4,6-triamine] | – | – | S | S | – |
| CCCCCCCCCCCCNc1nc(N(CCCCCCCC)C2CC(C)(C)N(C)C(C)(C)C2)nc(N(CCCCCCCC)C2CC(C)(C)N(C)C(C)(C)C2)n1 [Exemplary compound 13, N-dodecyl-N′,N″-bis(1,2,2,6,6-pentamethyl-4-piperidyl)-N′,N″-dioctyl-1,3,5-triazine-2,4,6-triamine] | – | – | S | S | – |
| CCCCN(c1nc(N(CCCC)C2CC(C)(C)N(C)C(C)(C)C2)nc(N(CCCC)C2CC(C)(C)N(C)C(C)(C)C2)n1)C1CC(C)(C)N(C)C(C)(C)C1 [Exemplary compound 6, N,N′,N″-tributyl-N,N′,N″-tris-(1,2,2,6,6-pentamethyl-4-piperidinyl)-[1,3,5]-triazine-2,4,6-triamine] | 250.7 | 320.2 | S | S | – |
